The results in this text go back to patent publication US6380218B1, “Nicotinamide derivatives” (Pfizer Inc, priority 1997, dated 2002).

For the compound `CC(=O)c1ccc(Oc2ncccc2C(=O)NCc2ccc(C(C)(C)O)cc2)cc1` [Example 236, 2-(4-Acetyl-phenoxy)-N-[4-(1-hydroxy-1-methyl-ethyl)-benzyl]-nicotinamide], the melting point (commonly the temperature, or range, at which the solid turns liquid) lay within 95 to 97 °C.

For `CC(=O)c1cccc(Oc2ncccc2C(=O)NCc2ccc(C(C)(C)O)cc2F)c1` [Example 237, 2-(3-Acetyl-phenoxy)-N-[2-fluoro-4-(1-hydroxy-1-methyl-ethyl)-benzyl]nicotinamide], the melting point lay in the range of 68 to 70 °C.

`CC(C)(O)c1ccc(CNC(=O)c2cccnc2Oc2cc(F)cc(F)c2)cc1` [Example 238, 2-(3,5-Difluoro-phenoxy)-N-[4-(1-hydroxy-1-methyl-ethyl)-benzyl]-nicotinamide] came in with a melting point of 68 to 70 °C.

As for `CC(C)(O)[C@H]1CC[C@H](CNC(=O)c2cccnc2Oc2ccc(F)cc2F)CC1` [Example 239, trans-2-(2,4-Difluoro-phenoxy)-N-[4-(1-hydroxy-1-methyl-ethyl)-cyclohexylmethyl]-nicotinamide], the melting point was in the range of 92 to 94 °C.

For the compound `CC(C)(O)[C@H]1CC[C@H](CNC(=O)c2cccnc2Oc2ccc(F)c(F)c2)CC1` [Example 240, trans-2-(3,4-Difluoro-phenoxy)-N-[4-(1-hydroxy-1-methyl-ethyl)-cyclohexylmethyl]-nicotinamide], the melting point fell in the range of 80 to 82 °C.

In the case of `CC(=O)c1cccc(Oc2ncccc2C(=O)NCC2CCC(C(C)(C)O)CC2)c1` (stereo not shown) [Example 242, 2-(3-Acetyl-phenoxy)-N-[4-(1-hydroxy-1-methyl-ethyl)-cyclohexylmethyl]-nicotinamide], the melting point lay in the range of 105 to 107 °C.

As for `CC(C)(O)c1ccc(CNC(=O)c2cccnc2Oc2ccc(F)c(C#N)c2)cc1` [Example 243, 2-(3-Cyano-4-fluoro-phenoxy)-N-[4-(1-hydroxy-1-methyl-ethyl)-benzyl]-nicotinamide], the melting point fell in the range of 147 to 149 °C.

For `CC(C)(O)c1ccc(CNC(=O)c2cccnc2Oc2ccc(F)c(C#N)c2)c(Cl)c1` [Example 244, N-[2-Chloro-4-(1-hydroxy-1-methyl-ethyl)-benzyl]-2-(3-cyano-4-fluoro-phenoxy)-nicotinamide], the melting point fell in the range of 151 to 153 °C.

In turn, `CC(C)(O)C1CCC(CNC(=O)c2cccnc2Oc2ccc(F)cc2)CC1` (stereo not shown) [Example 245, 2-(4-Fluoro-phenoxy)-N-[4-(1-hydroxy-1-methyl-ethyl)-cyclohexylmethyl]-nicotinamide] registered a melting point of 78 to 80 °C.

Consider `O=C(NCc1ccccc1Cl)c1cccnc1OCc1cccnc1` [Example 246, N-(2-Chloro-benzyl)-2-(pyridin-3-ylmethoxy)-nicotinamide], for which the melting point is 91 to 93 °C.

`CN(C)c1ccc(CNC(=O)c2cccnc2Oc2ccc(F)cc2)cc1` [Example 247, N-[[4-(Dimethylamino)phenyl]methyl]-2-(4-fluorophenoxy)-3-pyridinecarboxamide] came in with a melting point of 99.5 to 101.5 °C.

Turning to `COc1ccc(CCC(=O)c2cccnc2Oc2ccc(F)cc2)cc1` [Example 249, 1-[2-(4-Fluorophenoxy)-3-pyridinyl]-3-(4-methoxyphenyl)-1-propanone], the melting point is 73 to 74 °C.

For `O=C(CCc1ccc(C(F)(F)F)cc1)c1cccnc1Oc1ccc(F)cc1` [Example 252, 1-[2-(4-Fluoro-phenoxy)-pyridin-3-yl]-3-(4-trifluoromethyl-phenyl)-propan-1-one], the melting point was in the range of 94 to 95 °C.

Regarding `O=C(CCc1ccc(OC(F)(F)F)cc1)c1cccnc1Oc1ccc(F)cc1` [Example 253, 1-[2-(4-Fluoro-phenoxy)-pyridin-3-yl]-3-(4-trifluoromethoxy-phenyl)-propan-1-one], the melting point was in the range of 79 to 81 °C.

`O=C(CCc1cc(F)cc(F)c1)c1cccnc1Oc1ccc(F)cc1` [Example 254, 3-(3,5-Difluoro-phenyl)-1-[2-(4-fluoro-phenoxy)-pyridin-3-yl]-propan-1-one] showed a melting point of 69 to 70 °C.

With `O=C(CCc1c(F)cc(F)cc1F)c1cccnc1Oc1ccc(F)cc1` [Example 255, 1-[2-(4-Fluoro-phenoxy)-pyridin-3-yl]-3-(2,4,6-trifluoro-phenyl)-propan-1-one], the melting point was in the range of 84 to 85 °C.

Compound `O=C(CCc1ccccc1)c1cccnc1Oc1ccc(F)cc1` [Example 256, 1-[2-(4-Fluorophenoxy)-3-pyridinyl]-3-phenyl-1-propanone] had a melting point of 82 to 83 °C.

With `O=C(CCc1ccccc1)c1cccnc1Oc1cccnc1` [Example 257, 3-Phenyl-1-[2-(pyridin-3-yloxy)-pyridin-3-yl]-propan-1-one], the melting point lay in the range of 45 to 46 °C.

On to `O=C(CCc1ccc(F)cc1)c1cccnc1Oc1cccnc1` [Example 258, 3-(4-Fluoro-phenyl)-1-[2-(pyridin-3-yloxy)-pyridin-3-yl]-propan-1-one], for which the melting point lay within 62 to 64 °C.

On to `O=C(Cc1ccccc1)c1cccnc1Oc1ccc(F)cc1` [Example 264, 1-[2-(4-Fluoro-phenoxy)-pyridin-3-yl]-2-phenyl-ethanone], for which the melting point fell in the range of 81 to 82 °C.

Turning to `O=C(COc1ccccc1)c1cccnc1Oc1ccc(F)cc1` [Example 265, 1-[2-(4-Fluoro-phenoxy)-pyridin-3-yl]-2-phenoxy-ethanone], the melting point lay in the range of 105.5 to 106.5 °C.

Regarding `O=C(COc1ccccc1Cl)c1cccnc1Oc1ccc(F)cc1` [Example 266, 2-(2-Chloro-phenoxy)-1-[2-(4-fluoro-phenoxy)-pyridin-3-yl]-ethanone], the melting point is 92 to 93 °C.

The compound `O=C(c1cc2ccccc2[nH]1)c1cccnc1Oc1ccc(F)cc1` [Example 269, [2-(4-Fluoro-phenoxy)-pyridin-3-yl]-(1H-indol-2-yl)-methanone] returned a melting point of 169 to 170 °C.

Compound `CN(CC(=O)c1cccnc1Oc1ccc(F)cc1)c1ccccc1` [Example 270, 1-[2-(4-Fluoro-phenoxy)-pyridin-3-yl]-2-(methyl-phenyl-amino)-ethanone] displayed a melting point of 126 to 128 °C.

In turn, `OC(CCc1c(F)cc(F)cc1F)c1cccnc1Oc1ccc(F)cc1` (stereo not shown) [Example 274, 1-[2-(4-Fluoro-phenoxy)-pyridin-3-yl]-3-(2,4,6-trifluoro-phenyl)-propan-1-ol] yielded a melting point of 90 to 91 °C.

On to `COc1cccc(Oc2ncccc2C(=O)NCc2ccccc2Cl)c1` [Example 283, N-(2-Chloro-benzyl)-2-(3-methoxy-phenoxy)-nicotinamide], for which the melting point is 71 to 74 °C.

In turn, `CC(C)(O)c1ccc(CNC(=O)c2cccnc2Oc2cccc3c2CCC3=O)cc1` [Example 284, N-[4-(1-Hydroxy-1-methyl-ethyl)-benzyl]-2-(1-oxo-indan-4-yloxy)-nicotinamide] showed a melting point of 145 to 147 °C.

`CC(=O)c1ccc(CNC(=O)c2cccnc2Oc2ccc(F)cc2)cc1` [Example 285, N-[4-Acetyl-benzyl)-2-(4-fluoro-phenoxy)-nicotinamide] registered a melting point of 106 to 108 °C.

`O=C1CCC(CNC(=O)c2cccnc2Oc2ccc(F)cc2)CC1` [Example 286, 2-(4-Fluoro-phenoxy)-N-(4-oxo-cyclohexylmethyl)-nicotinamide] yielded a melting point of 157 to 159 °C.

For `O=C(NCC1CCC(O)CC1)c1cccnc1Oc1ccc(F)cc1` (stereo not shown) [Example 288, 2-(4-Fluoro-phenoxy)-N-(4-hydroxy-cyclohexylmethyl)-nicotinamide], the melting point was 110 to 112 °C.

Take `NC(=O)c1cccc(Oc2ncccc2C(=O)NCc2ccccc2Cl)c1` [Example 289, 2-(3-Carbamoyl-phenoxy)-N-(2-chloro-benzyl)-nicotinamide]: the melting point lay in the range of 153 to 155 °C.

In the case of `CC(C)(O)c1ccc(CNC(=O)c2cccnc2Oc2ccc3c(c2)OCO3)cc1` [Example 293, 2-(Benzo[1,3]dioxol-5-yloxy)-N-[4-(1-hydroxy-1-methyl-ethyl)-benzyl]-nicotinamide], the melting point was 118 to 120 °C.

`CCOC(=O)C1CCC(CNC(=O)c2cccnc2Oc2cccc(C(N)=O)c2)CC1` (stereo not shown) [Example 295, 4-({[2-(3-Carbamoyl-phenoxy)-pyridine-3-carbonyl]-amino}-methyl)-cyclohexanecarboxylic acid ethyl ester] displayed a melting point of 160 to 162 °C.

The compound `CC(C)(O)c1ccc(CNC(=O)c2cccnc2Oc2ccc3ncsc3c2)cc1` [Example 301, 2-(Benzothiazol-6-yloxy)-N-(4-(1-hydroxy-1-methyl-ethyl)-benzyl)-nicotinamide] returned a melting point of 195 to 197 °C.

For the compound `CC(C)(O)c1ccc(CNC(=O)c2cccnc2Oc2ccc3ncoc3c2)cc1` [Example 302, 2-(Benzooxazol-6-yloxy)-N-(4-(1-hydroxy-1-methyl-ethyl)-benzyl)-nicotinamide], the melting point was 92 to 94 °C.

For `CC(=O)c1cc(Cl)cc(Oc2ncccc2C(=O)NCc2ccc(C(C)(C)O)cc2)c1` [Example 305, 2-(3-Acetyl-5-chloro-phenoxy)-N-(4-(1-Hydroxy-1-methyl-ethyl)-benzyl)-nicotinamide], the melting point was in the range of 110 to 112 °C.

Regarding `CC(=O)c1cccc(Oc2ncccc2C(=O)NCc2ccc([C@H](C)O)cc2)c1` [Example 306, (S)-(−)-2-(3-Acetyl-phenoxy)-N-(4-(1-hydroxy-ethyl)-benzyl)-nicotinamide], the melting point is 102 to 104 °C.

`CC(=O)c1cccc(Oc2ncccc2C(=O)NCc2ccc([C@@H](C)O)cc2)c1` [Example 307, (R)-(+)-2-(3-Acetyl-phenoxy)-N-(4-(1-hydroxy-ethyl)-benzyl)-nicotinamide] yielded a melting point of 104 to 106 °C.

For the compound `CC(=O)c1cc(Cl)cc(Oc2ncccc2C(=O)NC[C@H]2CC[C@H](C(C)(C)O)CC2)c1` [Example 308, 2-(3-Acetyl-5-chloro-phenoxy)-N-(trans-4-(1-hydroxy-1-methyl-ethyl)-cyclohexylmethyl)-nicotinamide], the melting point lay within 133 to 135 °C.

Take `CC(=O)c1cc(Oc2ncccc2C(=O)NC[C@H]2CC[C@H](C(C)(C)O)CC2)ccc1Cl` [Example 309, 2-(3-Acetyl-4-chloro-phenoxy)-N-(trans-4-(1-hydroxy-1-methyl-ethyl)-cyclohexylmethyl)-nicotinamide]: the melting point lay in the range of 106 to 108 °C.
